From patent publication US9862690B2, “Treatment of pulmonary and other conditions” (University of Pittsburgh—of the Commonwealth System of …, priority 2013, dated 2018) come the findings set out here.

Series [1] in a line: FRAP assay (ferric reduction/anti-oxidant power). The series is classed as biochemical. To be noted: 10 μmol compound, 5 min, 593 nm; Troxol reference. The protocol:
The antioxidant activity of PB141 was determined by ferric reduction/anti-oxidant power (FRAP) assay in which the compound is reacted with ferric tripyridyltriazine complex. Data are representative of one of two independent experiments; n=3; *** P<0.001 versus Troxol.
The antioxidant activity of PB141 or PB157 was determined by ferric reduction/anti-oxidant power (FRAP) assay in which the compounds are reacted with ferric tripyridyltriazine complex. The ferric complex was prepared at room temperature by reaction of ferric chloride (16.7 mmol) and 2,4,6-trispyridyl-s-triazine (8.33 mmol) in pH 3.6 acetate buffer (0.25 M). The FRAP reagent was used immediately after preparation. PB141 or PB157 (10 μmol) was added to the FRAP reagent (1 ml) and mixed by vortexing. The reaction was allowed to stabilize for 5 min and the absorbance was measured. The antioxidant activities of these compounds were determined by the ability to reduce the ferric complex to a […] ferrous complex, monitored at 593 nm. Troxol (10 μmol) was used as reference standard.

The subject of another series is BEAS-2B cells. The series is classed as cell-based. The protocol: To evaluate cell viability, apoptosis, and cytotoxicity, the Apo Tox-Glo Triplex assay was used according to the manufacturer's instructions (Promega, Madison, Wis.). Briefly, the BEAS-2B cells were plated at 2×10^4 cells/well in 100 μl medium in an opaque walled, clear-bottomed, 96-well plate. After 24 hr culture, they were treated for a further indicated time with different concentrations of PB141 or PB157. At the end of the culture period, 20 μl viability/cytotoxicity reagent was added to each well, mixed by orbital shaking (300 r.p.m. for 30 s) and incubated for 30 min at 37° C. Fluorescence was then measured with excitation at 400 nm and emission at 505 nm to assess cell viability, and 485 nm excitation and 520 nm emission to assess cytotoxicity; both were quantified as relative fluorescence units (RFU). Then, 100 μl Caspase-Glo 3/7 reagent was added to each well, mixed by orbital shaking (300 r.p.m. for 30 s) and incubated for 30 min at room temperature. Luminescence was measured to assess caspase activation as a marker of apoptosis and quantified as relative luminescence units. Results for PB141 and PB157 were similar.

Series [2] in a line: TRAP assay (quenching of ABTS+ radical cation). The series is classed as biochemical. To be noted: 10 μmol compound, 5 min, absorbance 734 nm; Troxol reference. The protocol:
The anti-oxidant activities of PB 141 were determined by the ability of this compound to react with pre-formed radical monocation of 2,2′-azinobis-(3-ethylbenzothiazoline)-6-sulfonic acid (ABTS^+). Data are representative of one of two independent experiments; n=3; *** P<0.001 versus Troxol.
The anti-oxidant activity of PB141 or PB157 was determined by the ability of these compounds to react with the pre-formed radical monocation of 2,2′-azinobis-(3-ethylbenzothiazoline)-6-sulfonic acid (ABTS^+). ABTS (1.8 mmol) was reacted overnight with potassium persulfate (0.63 mmol) in double distilled water, at room temperature in the dark, to generate the dark blue ABTS^+ radical cation. This radical cation has a maximum absorption at 734 nm. Immediately prior to the experiment, ABTS^+ was diluted with absolute ethanol to an absorbance of approximately 0.7 at 734 nm. PB141 or PB157 (10 μmol) was added to ABTS^+ (1 ml) and mixed by vortexing. The reaction was allowed to stabilize for 5 min and the absorbance was measured. The anti-oxidant activities of these compounds were determined by their ability to quench the color of the radical cation. Troxol (10 μmol) was used as reference standard.

With `CC(=O)N[C@@H](CSC(c1cnccn1)C1CCCC(C(SC[C@H](NC(C)=O)C(=O)O)c2cnccn2)C1=O)C(=O)O` (stereo partly shown) [PB157], the “Antioxidant activity (reduction of ferric complex)” value in series [1] is “highly significant and approximately equal”. Besides, the Cytotoxicity entry in the series on BEAS-2B cells was “without exhibiting cytotoxicity”. Also, the “Apoptosis (caspase 3/7 activation)” value in the series on BEAS-2B cells (different concentrations, data not shown) was “induced apoptosis”. Moreover, the “Anti-oxidant activity (ability to quench ABTS+ radical cation)” value in series [2] was “clearly demonstrated”.
